Laboratory results taken from PMC10101232, “Population pharmacokinetics of vancomycin in very low birth weight neonates” (Frontiers in Pediatrics, 2023).
Where two headings read alike, the source gives them in different places.

Tests used:
[1] = Vancomycin population pharmacokinetic model (one-compartment, Monolix) from serum concentrations in VLBW neonates
Procedure: Data were retrieved for VLBW neonates (0–30 days old) who were admitted to the NICU and received vancomycin for proven or suspected MRSA or MRCONS infections. Patients were included if they received vancomycin for more than 48 h and had at least one vancomycin serum trough concentration measurement in a steady state. The collected data included PNA, PMA, weight, Scr, vancomycin dose, frequency and concentrations. […] Subsequent dose adjustments were guided by the vancomycin trough concentrations. In King Saud University Medical City, both vancomycin peak and trough concentrations were obtained for therapeutic drug monitoring. In all other hospitals, the practice was to collect trough concentrations only. Peak samples were collected 1 h after the end of infusions, and trough concentrations were collected 30 min before the next dose in a steady state. Exclusion criteria were: renal failure, receiving hemodialysis, missing dosing information and those sampled before the steady state were excluded.
One hospital used a chemiluminescent microparticle immunoassay with an Architect i4000SR immunoassay analyzer (Abbott), two hospitals used the kinetic interaction of microparticles in solution (KIMS) with a Cobas c system (Roche/Hitachi), and three hospitals used the homogeneous particle-enhanced turbidimetric inhibition immunoassay (PETINIA) with an Alinity c analyzer (Abbott). The assay range for the Architect immunoassay is from 0.5 to 83 µg/ml, the range for the KIMS assay is 4–80 µg/ml, and the range for the PETINIA is 1.4–100 µg/ml. For the Scr assays, four centers used the Jaffe method, and two centers used the enzymatic method.
We split the data randomly into the training (70%) and validation (30%) data sets. […] Pharmacokinetic modeling was performed using the Monolix software (2020R1) with the stochastic approximation expectation maximization algorithm.
First, we developed a structural model for vancomycin. This included testing one- and two-compartment models with linear and nonlinear elimination. For the between-subject variability in pharmacokinetic parameters, we used the following lognormal distribution: pi=p.exp⁡(ηi), where pi is the individual pharmacokinetic estimate for the i^th individual, p is the median value of the pharmacokinetic parameter, and ηi is the standard deviation for the i^th individual with a mean of 0 and variance ω^2. For residual unexplained variability, we tested different statistical models, including the constant, proportional, and combined error models. As different assays were used for vancomycin, we tested having different residual variability models accordingly.
After we developed the base model, we evaluated the effect of covariates on pharmacokinetic parameters. […]

[2] = cited from earlier work; for risk of nephrotoxicity: adults, ref [30]
[3] = model from 10 VLBW neonates, 10 mg/kg every 8 h, ref Kato et al. [16]; cited from earlier work
From the text: The most commonly used tertiary dosing references present vancomycin dosing recommendations for neonates considering only one or two of these variables. For example, Micromedex NeoFax recommends dosing based on a combination of PMA and PNA, pediatric and neonatal Lexicomp recommends two different dosing strategies, one based on a combination of PMA and PNA and the other based on a combination of GA and Scr (Table 1). As a result, the daily doses can differ widely by up to 50% between these studies. Studies have reported that the probability of achieving vancomycin therapeutic targets in neonat ... || To date, only two studies with very small sample size have evaluated the optimal vancomycin dosing in VLBW neonates ([16], [17]). Kato et al. ([16]) recommended a vancomycin dose of 10 mg/kg every 8 h as the initial dosage regimen for vancomycin in VLBW neonates. This model predicted vancomycin therapeutic target achievement in 86.7% of neonates. However, they developed their model based on data from only 10 VLBW neonates, and the simulations were not divided into categories according to Scr and PMA. The major difference between our findings and the Kato et al. model is that for most groups, e ...

CN[C@H](CC(C)C)C(=O)N[C@H]1C(=O)N[C@@H](CC(N)=O)C(=O)N[C@H]2C(=O)N[C@H]3C(=O)N[C@H](C(=O)N[C@H](C(=O)O)c4cc(O)cc(O)c4-c4cc3ccc4O)[C@H](O)c3ccc(c(Cl)c3)Oc3cc2cc(c3O[C@@H]2O[C@H](CO)[C@@H](O)[C@H](O)[C@H]2O[C@H]2C[C@](C)(N)[C@H](O)[C@H](C)O2)Oc2ccc(cc2Cl)[C@H]1O [vancomycin]
typical Cl value ([1]; VLBW neonate weighing 0.93 kg, PMA 26 weeks, Scr 0.6 mg/dl): 0.09 L/h
TMA50 (PMA at which CL is 50% of the mature value) ([1]; final model): 26.3 weeks
Cl (total body clearance), estimate ([1]; final population PK model, VLBW neonates, training data set N = 162): 0.09 L/h
V (volume of distribution), estimate ([1]; final population PK model, VLBW neonates, training data set N = 162, typical value at 0.93 kg): 0.81 L
probable vancomycin-related nephrotoxicity, neonates affected ([2]; VLBW neonates, ref Madigan et al. [41]): two out of 57
risk of nephrotoxicity ([2]; troughs >20 µg/ml): approximately 30%
risk of nephrotoxicity ([2]; troughs between 15 and 20 µg/ml): approximately 15%
nephrotoxicity, patients ([2]; infants, ref Viel-Thériault et al. [42]): 6%
subjects who developed nephrotoxicity ([2]; neonatal intensive care unit, ref Bhargava et al. [39]): three out of 110
AUC0−24 cutoff as a predictor of nephrotoxicity ([2]; neonates, ref Tang et al. [43]): > 485 µg·h/mL
neonates who developed nephrotoxicity ([2]; neonates, ref Tang et al. [43]): seven out of 182
predicted vancomycin therapeutic target achievement [3]: 86.7%
